# Results reported in article PMC10608790, “Structural Diversity and Biological Activity of Cyanopeptolins Produced by Nostoc edaphicum CCNP1411” (Marine Drugs, 2023).
# Like-named read-outs stand apart in the source and are kept apart here.
# Legend:
# elastase [1] = biological target: T1, elastase (Sus scrofa, UniProt P00772); experiment: Elastase inhibition assay; assay type: biochemical; settings: for IC50: read-out: E (elastase) IC50; for E (elastase) inhibition class: class symbol instead of IC50
# T1 sequence (P00772 27-266): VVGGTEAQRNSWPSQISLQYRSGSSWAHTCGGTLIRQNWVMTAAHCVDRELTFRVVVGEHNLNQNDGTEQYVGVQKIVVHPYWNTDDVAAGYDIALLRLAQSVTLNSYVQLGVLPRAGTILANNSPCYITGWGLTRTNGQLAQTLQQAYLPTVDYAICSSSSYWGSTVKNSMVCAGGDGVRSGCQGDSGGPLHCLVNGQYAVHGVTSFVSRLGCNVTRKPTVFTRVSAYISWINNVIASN
# Procedure: (§1) The enzyme inhibitory activity of cyanopeptolins was assayed against trypsin [108], chymotrypsin, thrombin [109], and elastase as described before. In brief, the samples were prepared and serially diluted (1 mg, 1:1—1:10,000 times) in 1% DMSO; the standard inhibitors: aprotinin (trypsin and chymotrypsin) AEBSF 4-(2-aminoethyl)benzenesulfonyl fluoride hydrochloride (thrombin), elastatinal (elastase) (all from Sigma Aldrich; St. Louis, MO, USA) were also prepared in 1% DMSO. DMSO (1%) without the addition of the enzyme served as a negative control. All tests were carried out in triplicates. After the incubation of the assay mixtures, the absorbances were measured at 405 nm (Varioskan Flash Thermo Fisher Scientific OY, Vantaa, Finland). The reduction in enzyme activity greater than 50% was considered as significant.
# thrombin = thrombin (Homo sapiens, UniProt P00734); experiment: Thrombin inhibition assay; assay type: biochemical; settings: highest concentration in the assay 45 µg × mL−1
# Procedure: as §1
# [2] = test system: human cervical cancer (HeLa) cell line; experiment: MTT assay on HeLa cells; assay type: cell-based; settings: 200 µg × mL−1, 24 h
# Procedure: The cytotoxic activity of the selected 17 CPs against the HeLa cervical cancer cell line (Merck KGaA, Darmstadt, Germany) was assessed with the MTT (3-(4,5-dimethylthiazole-2-yl)-2,5-diphenyltetrazolium bromide) assay according to Felczykowska et al.. HeLa cells were seeded at 4 × 10^3 cells per well in DMEM medium (Merck KGaA) supplemented with 10% (v/v) fetal bovine serum (Merck KGaA) and penicillin-streptomycin solution (1% v/v, stock solution 50 u and 0.05 mg × mL^−1, respectively; Merck KGaA). Cells were allowed to attach overnight, and then the tested compounds prepared in 1% DMSO were added. After incubation (24 h), 25 µL of MTT solution (4 mg × mL^−1; Merck KGaA) were added and then the samples were incubated for another 4 h. The formazan crystals were dissolved with 100% DMSO and absorbance was measured with Spectramax i3 (Molecular Deviecs, LLC San Jose, CA, USA). The reduction in cell viability greater than 60% was considered as significant.
# breast cancer cell line = test system: breast cancer cell line; parameters: method as in PMID 29949853; settings: up to 500 µg × mL−1; cited from earlier work
# chymotrypsin [3] = biological target: T2, chymotrypsin (Bos taurus, UniProt P00766); parameters: method as in PMID 29949853; settings: results published earlier; read-out: CHY (chymotrypsin) IC50, value marked *; cited from earlier work
# breast cancer cells = test system: breast cancer cells; parameters: method as in PMID 29405541; settings: cited from earlier work
# H-460 lung cancer cells = test system: H-460 lung cancer cells; parameters: method as in PMID 18163584; settings: cited from earlier work
# [4] = test system: neuro-2a neuroblastoma cells; parameters: method as in PMID 18163584; settings: cited from earlier work
# [5] = test system: KB human epithelial carcinoma cells; parameters: method as in PMID 12762794; settings: cited from earlier work
# enzymes = test system: enzymes; parameters: method as in PMID 20028081; settings: cited from earlier work
# trypsin = biological target: T3, trypsin (Bos taurus, UniProt P00760); experiment: Trypsin inhibition assay; assay type: biochemical; settings: for activity against serine proteases (in words): Arg2-containing CPs lacking the side-chain, Table 1 enzymes; for TRY (trypsin) inhibition class: class symbol instead of IC50
# T3 sequence (P00760 24-246): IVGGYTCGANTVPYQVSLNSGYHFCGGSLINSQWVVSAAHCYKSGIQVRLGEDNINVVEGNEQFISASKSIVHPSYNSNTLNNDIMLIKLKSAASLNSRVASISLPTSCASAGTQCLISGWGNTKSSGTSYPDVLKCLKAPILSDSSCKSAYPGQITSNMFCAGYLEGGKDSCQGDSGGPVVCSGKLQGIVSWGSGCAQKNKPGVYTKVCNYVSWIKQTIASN
# Procedure: as §1
# chymotrypsin [6] = biological target: T2, chymotrypsin; experiment: Chymotrypsin inhibition assay; assay type: biochemical; settings: class symbol instead of IC50
# Procedure: as §1, with “In” for “The enzyme inhibitory activity of cyanopeptolins was assayed against trypsin [108], chymotrypsin, thrombin [109], and elastase as described before. In”
# elastase [7] = biological target: T1, elastase; parameters: method as in doi:10.1016/j.tet.2019.04.046; settings: cited from earlier work
# HeLa S3 cells = test system: HeLa S3 cells; parameters: method as in doi:10.1016/j.tet.2019.04.046; settings: cited from earlier work
molecule,measurement,setting,value
"CCCC(=O)NC(CC(=O)O)C(=O)NC1C(=O)NC(CC(C)C)C(=O)NC2CCC(O)N(C2=O)C(Cc2ccccc2)C(=O)N(C)C(Cc2ccccc2)C(=O)NC(C(C)C)C(=O)OC1C (centres unmarked) [CP 919, [Thr + Leu + Ahp + Phe + MePhe + Val]Asp + BA]",IC50,elastase [1],5.71 µM
same,TRB (thrombin) inhibition class,thrombin,− (not active (inhibition below 50%))
same,reduction in cell viability versus control,[2],97.6%
"CC(=O)NC(CC(=O)O)C(=O)NC1C(=O)NC(Cc2ccc(O)cc2)C(=O)NC2CCC(O)N(C2=O)C(Cc2ccccc2)C(=O)N(C)C(Cc2ccccc2)C(=O)NC(C(C)C)C(=O)OC1C (centres unmarked) [CP 941, [Thr + Tyr + Ahp + Phe + MePhe + Val]Asp + Ac]",E (elastase) inhibition class,elastase [1],− (not active (inhibition below 50%))
same,TRB (thrombin) inhibition class,thrombin,− (not active (inhibition below 50%))
"CCCC(=O)NC(CC(=O)O)C(=O)NC1C(=O)NC(CC(C)C)C(=O)NC2CCC(O)N(C2=O)C(Cc2ccccc2)C(=O)N(C)C(Cc2ccc(OC)cc2)C(=O)NC(C(C)C)C(=O)OC1C (centres unmarked) [CP 949, [Thr + Leu + Ahp + Phe + diMeTyr + Val]Asp + BA]",IC50,elastase [1],3.32 µM
same,TRB (thrombin) inhibition class,thrombin,− (not active (inhibition below 50%))
same,reduction in cell viability versus control,[2],71.5%
"CCCC(=O)N[C@@H](CC(=O)O)C(=O)N[C@@H]1C(=O)N[C@@H](CCCNC(=N)N)C(=O)N[C@H]2CC[C@@H](O)N(C2=O)[C@@H](Cc2ccccc2)C(=O)N(C)[C@@H](Cc2ccccc2)C(=O)N[C@@H](C(C)C)C(=O)O[C@@H]1C [CP 962, [Thr + Arg + Ahp + Phe + MePhe + Val]Asp + BA]",cytotoxic activity (in words),breast cancer cell line,no effects were observed
"CCCC(=O)N[C@@H](CC(=O)O)C(=O)N[C@@H]1C(=O)N[C@@H](CCCNC(=N)N)C(=O)N[C@H]2CC[C@@H](O)N(C2=O)[C@@H](Cc2ccccc2)C(=O)N(C)[C@@H](Cc2ccc(O)cc2)C(=O)N[C@@H](C(C)C)C(=O)O[C@@H]1C [CP 978, [Thr + Arg + Ahp + Phe + MeTyr + Val]Asp + BA]",reduction in cell viability versus control,[2],62.5%
same,IC50,chymotrypsin [3],3.8 µM
"CCCC(=O)NC(CC(=O)O)C(=O)NC1C(=O)NC(Cc2ccccc2)C(=O)NC2CCC(O)N(C2=O)C(Cc2ccccc2)C(=O)N(C)C(Cc2ccc(OC)cc2)C(=O)NC(C(C)C)C(=O)OC1C (centres unmarked) [CP 983, [Thr + Phe + Ahp + Phe + diMeTyr + Val]Asp + BA]",E (elastase) inhibition class,elastase [1],− (not active (inhibition below 50%))
same,TRB (thrombin) inhibition class,thrombin,− (not active (inhibition below 50%))
"CCCC(=O)N[C@@H](CC(=O)O)C(=O)N[C@@H]1C(=O)N[C@@H](Cc2ccc(O)cc2)C(=O)N[C@H]2CC[C@@H](O)N(C2=O)[C@@H](Cc2ccccc2)C(=O)N(C)[C@@H](Cc2ccc(O)cc2)C(=O)N[C@@H](C(C)C)C(=O)O[C@@H]1C [CP 985, [Thr + Tyr + Ahp + Phe + MeTyr + Val]Asp + BA]",cytotoxic activity (in words),breast cancer cell line,no effects were observed
"CCCCCC(=O)NC(CC(=O)O)C(=O)NC1C(=O)NC(CCCNC(=N)N)C(=O)NC2CCC(O)N(C2=O)C(Cc2ccccc2)C(=O)N(C)C(Cc2ccccc2)C(=O)NC(C(C)C)C(=O)OC1C (centres unmarked) [CP 990, [Thr + Arg + Ahp + Phe + MePhe + Val]Asp + HA]",E (elastase) inhibition class,elastase [1],− (not active (inhibition below 50%))
same,TRB (thrombin) inhibition class,thrombin,− (not active (inhibition below 50%))
"CCCC(=O)NC(CC(=O)O)C(=O)NC1C(=O)NC(Cc2ccc(O)cc2)C(=O)NC2CCC(O)N(C2=O)C(Cc2ccccc2)C(=O)N(C)C(Cc2ccc(OC)cc2)C(=O)NC(C(C)C)C(=O)OC1C (centres unmarked) [CP 999, [Thr + Tyr + Ahp + Phe + diMeTyr + Val]Asp + BA]",E (elastase) inhibition class,elastase [1],− (not active (inhibition below 50%))
same,TRB (thrombin) inhibition class,thrombin,− (not active (inhibition below 50%))
C/C=C1\NC(=O)[C@@H](NC(=O)[C@@H](NC(=O)[C@H](C)NC(=O)CCC)[C@@H](C)O)[C@@H](C)OC(=O)[C@H](C(C)C)NC(=O)[C@H](Cc2ccc(O)cc2)N(C)C(=O)[C@H](Cc2ccccc2)N2C(=O)[C@H](CC[C@H]2O)NC1=O [molassamide],effect on elastase-mediated migration (in words),breast cancer cells,inhibiting
CCCC(=O)N[C@@H](CCC(N)=O)C(=O)N[C@@H]1C(=O)N[C@@H](CCCNC(N)=O)C(=O)N[C@H]2CC[C@@H](O)N(C2=O)[C@@H]([C@@H](C)CC)C(=O)N(C)[C@@H](Cc2ccc(OC)c(Br)c2)C(=O)N[C@@H](C(C)C)C(=O)O[C@@H]1C [symplocamide A],cytotoxic effect (in words),H-460 lung cancer cells,affected
same,cytotoxic effect (in words),[4],affected
CCCC(=O)N[C@H](C(=O)N[C@@H]1C(=O)N[C@@H](CC(C)C)C(=O)N[C@H]2CC[C@@H](O)N(C2=O)[C@@H](CC(C)C)C(=O)N(C)[C@@H](Cc2ccccc2)C(=O)N[C@@H](C(C)C)C(=O)O[C@@H]1C)C(C)C [tasipeptin A],cytotoxic effect (in words),[5],cytotoxic
CCCC(=O)N[C@@H]1C(=O)N[C@@H](CC(C)C)C(=O)N[C@H]2CC[C@@H](O)N(C2=O)[C@@H](CC(C)C)C(=O)N(C)[C@@H](Cc2ccccc2)C(=O)N[C@@H](C(C)C)C(=O)O[C@@H]1C [tasipeptin B],cytotoxic effect (in words),[5],cytotoxic
Micropeptin MZ771,effect on the activity of enzymes (in words),enzymes,did not affect the activity of enzymes
[Thr + Arg + Ahp + Phe + MePhe + Val] [CP 778],activity against serine proteases (in words),trypsin,not active
same,TRY (trypsin) inhibition class,trypsin,− (not active (inhibition below 50%))
same,CHY (chymotrypsin) inhibition class,chymotrypsin [6],− (not active (inhibition below 50%))
same,E (elastase) inhibition class,elastase [1],− (not active (inhibition below 50%))
same,TRB (thrombin) inhibition class,thrombin,− (not active (inhibition below 50%))
[Thr + Arg + Ahp + Phe + diMeTyr + Val] [CP 809],activity against serine proteases (in words),trypsin,not active
same,TRY (trypsin) inhibition class,trypsin,− (not active (inhibition below 50%))
same,CHY (chymotrypsin) inhibition class,chymotrypsin [6],− (not active (inhibition below 50%))
same,E (elastase) inhibition class,elastase [1],− (not active (inhibition below 50%))
same,TRB (thrombin) inhibition class,thrombin,− (not active (inhibition below 50%))
[Thr + Phe + Ahp + Phe + diMeTyr + Val]Asp + HA [CP 1011],TRY (trypsin) inhibition class,trypsin,− (not active (inhibition below 50%))
same,CHY (chymotrypsin) inhibition class,chymotrypsin [6],− (not active (inhibition below 50%))
same,E (elastase) inhibition class,elastase [1],− (not active (inhibition below 50%))
same,TRB (thrombin) inhibition class,thrombin,− (not active (inhibition below 50%))
[Thr + Tyr + Ahp + Phe + MePhe + Val]Asp + OA [CP 1025],TRY (trypsin) inhibition class,trypsin,− (not active (inhibition below 50%))
same,CHY (chymotrypsin) inhibition class,chymotrypsin [6],+/− (low activity (inhibition between 50 and 60%))
same,E (elastase) inhibition class,elastase [1],− (not active (inhibition below 50%))
same,TRB (thrombin) inhibition class,thrombin,− (not active (inhibition below 50%))
kyanamide,IC50,elastase [7],0.00013 µM
same,cytotoxic effect (in words),HeLa S3 cells,moderately cytotoxic
